According to US6127519A, “Calcitonin derivatives” (Tsumura & Co., priority 1990, dated 2000):
Bridge positions count the residues as written; N and C are the ends. Ends that are not written are not given here. Peptide text beside a SMILES is read from it.

System: calcium concentration in the serum
Assay: Test 1: reduction of calcium level in serum after tail vein administration to rats
Type: in vivo, rats of the Wistar strain
Settings: 1 ml/kg tail vein, female Wistar rats
How it was run: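 Female Wistar rats, six weeks old, were assigned in groups of 4 and given the test peptides through the tail vein at 1 ml/kg. The peptides were dissolved in 1% aqueous sodium acetate (pH 4,0) containing 0.1% BSA. Blood (0.3 ml) was drawn from the neck vein immediately before dosing and at set times afterward. Serum was separated by centrifuging at 3500 rpm for 20 minutes. Calcium was measured on a TBA-380 analyzer with a Wako o-cpc kit, and the percentage reduction in serum calcium was calculated.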

[1] = concentration 166 ng/ml, 0 hour (just before administration)
[2] = concentration 166 ng/ml, 1 hour
[3] = concentration 166 ng/ml, 2 hours
[4] = concentration 166 ng/ml, 4 hours
[5] = concentration 166 ng/ml, 6 hours
[6] = concentration 83 ng/ml, 0 hour (just before administration)
[7] = concentration 83 ng/ml, 2 hours
[8] = concentration 83 ng/ml, 4 hours
[9] = concentration 83 ng/ml, 6 hours
[10] = concentration 830 ng/ml, 0 hour (just before administration)
[11] = concentration 830 ng/ml, 1 hour
[12] = concentration 830 ng/ml, 2 hours
[13] = concentration 830 ng/ml, 4 hours
[14] = concentration 830 ng/ml, 6 hours

Compound	Serum calcium level as percent of pre-dose baseline [1]	Serum calcium level as percent of pre-dose baseline [2]	Serum calcium level as percent of pre-dose baseline [3]	Serum calcium level as percent of pre-dose baseline [4]	Serum calcium level as percent of pre-dose baseline [5]	Serum calcium level as percent of pre-dose baseline [6]	Serum calcium level as percent of pre-dose baseline (concentration 83 ng/ml, 1 hour)	Serum calcium level as percent of pre-dose baseline [7]	Serum calcium level as percent of pre-dose baseline [8]	Serum calcium level as percent of pre-dose baseline [9]	Serum calcium level as percent of pre-dose baseline [10]	Serum calcium level as percent of pre-dose baseline [11]	Serum calcium level as percent of pre-dose baseline [12]	Serum calcium level as percent of pre-dose baseline [13]	Serum calcium level as percent of pre-dose baseline [14]
AGNLSTAMLGKLSQELHKLQTYPQTAIGVGAP-NH2 [Peptide No. 14]	100.0%	76.0%	70.0%	74.3%	73.7%	–	–	–	–	–	–	–	–	–	–
CC[C@H](C)[C@H](NC(=O)[C@H](C)NC(=O)[C@@H](NC(=O)[C@H](CCC(N)=O)NC(=O)[C@@H]1CCCN1C(=O)[C@H](Cc1ccc(O)cc1)NC(=O)[C@@H](NC(=O)[C@H](CCC(N)=O)NC(=O)[C@H](CC(C)C)NC(=O)[C@H](CCCCN)NC(=O)[C@H](Cc1c[nH]cn1)NC(=O)[C@H](CC(C)C)NC(=O)[C@H](CCC(=O)O)NC(=O)[C@H](CCC(N)=O)NC(=O)[C@H](CO)NC(=O)[C@H](CC(C)C)NC(=O)[C@H](CCCCN)NC(=O)CNC(=O)[C@H](CC(C)C)NC(=O)[C@H](CC(C)C)NC(=O)[C@@H]1CC(=O)NCCCC[C@H](N)C(=O)N[C@@H](CC(N)=O)C(=O)N[C@@H](CC(C)C)C(=O)N[C@@H](CO)C(=O)N[C@@H]([C@@H](C)O)C(=O)N1)[C@@H](C)O)[C@@H](C)O)C(=O)NCC(=O)N[C@H](C(=O)NCC(=O)N[C@@H](C)C(=O)N1CCC[C@H]1C(N)=O)C(C)C [Peptide No. 28] (H-KNLSTDLLGKLSQELHKLQTYPQTAIGVGAP-NH2; lactam 1-6)	–	–	–	–	–	100.0%	83.7%	87.7%	82.6%	80.8%	100.0%	73.5%	87.2%	83.8%	81.6%
AGNLSTAMLGKLSQELHKLYPQTAIGVGAP-NH2 [Peptide No. 16]	100.0%	80.0%	86.5%	84.8%	85.7%	–	–	–	–	–	–	–	–	–	–
CC[C@H](C)[C@H](NC(=O)[C@H](C)NC(=O)[C@@H](NC(=O)[C@H](CCC(N)=O)NC(=O)[C@@H]1CCCN1C(=O)[C@H](Cc1ccc(O)cc1)NC(=O)[C@H](CC(C)C)NC(=O)[C@H](CCCCN)NC(=O)[C@H](Cc1c[nH]cn1)NC(=O)[C@H](CC(C)C)NC(=O)[C@H](CCC(=O)O)NC(=O)[C@H](CCC(N)=O)NC(=O)[C@H](CO)NC(=O)[C@H](CC(C)C)NC(=O)[C@H](CCCCN)NC(=O)CNC(=O)[C@H](CC(C)C)NC(=O)[C@H](CCSC)NC(=O)[C@@H]1CSSC[C@H](N)C(=O)NCC(=O)N[C@@H](CC(N)=O)C(=O)N[C@@H](CC(C)C)C(=O)N[C@@H](CO)C(=O)N[C@@H]([C@@H](C)O)C(=O)N1)[C@@H](C)O)C(=O)NCC(=O)N[C@@H](CO)C(=O)NCC(=O)N[C@H](C(=O)N1CCC[C@H]1C(N)=O)[C@@H](C)O [Peptide No. 7] (H-CGNLSTCMLGKLSQELHKLYPQTAIGSGTP-NH2; disulfide 1-7)	–	–	–	–	–	–	–	–	–	–	100.0%	81.9%	91.7%	97.4%	100.0%
CC[C@H](C)[C@H](NC(=O)[C@H](C)NC(=O)[C@@H](NC(=O)[C@H](CCC(N)=O)NC(=O)[C@@H]1CCCN1C(=O)[C@H](Cc1ccc(O)cc1)NC(=O)[C@@H](NC(=O)[C@H](CCC(N)=O)NC(=O)[C@H](CC(C)C)NC(=O)[C@H](CCCCN)NC(=O)[C@H](Cc1c[nH]cn1)NC(=O)[C@H](CC(C)C)NC(=O)[C@H](CCC(=O)O)NC(=O)[C@H](CCC(N)=O)NC(=O)[C@H](CO)NC(=O)[C@H](CC(C)C)NC(=O)[C@H](CCCCN)NC(=O)CNC(=O)[C@H](CC(C)C)NC(=O)[C@H](CC(C)C)NC(=O)[C@@H]1CCCCNC(=O)C[C@H](NC(C)=O)C(=O)N[C@@H](CC(N)=O)C(=O)N[C@@H](CC(C)C)C(=O)N[C@@H](CO)C(=O)N[C@@H]([C@@H](C)O)C(=O)N1)[C@@H](C)O)[C@@H](C)O)C(=O)NCC(=O)N[C@H](C(=O)NCC(=O)N[C@@H](C)C(=O)N1CCC[C@H]1C(N)=O)C(C)C [Peptide No. 25] (Ac-DNLSTKLLGKLSQELHKLQTYPQTAIGVGAP-NH2; lactam 1-6)	–	–	–	–	–	100.0%	76.9%	67.6%	66.7%	71.3%	100.0%	73.4%	64.3%	51.8%	44.3%
Peptide No. 20: novel linear calcitonin-derivative peptide, Ala at 1 and 7, Leu8, SEQ ID NO:20 (AGNLTSALLGKLSQELHKLQTYPQTAIGVGAP; ends and bridges not checked)	–	–	–	–	–	100.0%	86.6%	88.4%	83.9%	87.5%	100.0%	80.6%	87.8%	82.9%	84.5%
